Patent US20250276999A1, “PEPTIDES FOR PROMOTING HAIR FOLLICLE NEOGENESIS, AND PREVENTION/MITIGATION OF UNTOWARD EFFECTS OF RADIATION TREATMENT” (Trustees of Tufts College, priority 2022, published 2025)
Read-outs that look alike come from different tables or passages of the source.

Experiments:
X-ray irradiated mice = assay: Radiation dermatitis murine model (thoracic X-ray irradiation); type: in vivo, C57BL/6 mice
Procedure: Animals were irradiated in the RS2000 small animal irradiator. The RS2000 provides a cone-shaped radiation field with irradiation at 12.39-40.50 cm from the X-ray source. For dose measurements, irradiation was performed with the following settings: 160 kVp, 25 mA, 90 s irradiation time and 0.3 mm Cu beam filtration. The approximate HVL provided by the manufacturer was 0.62 mm Cu. […] A custom lead shield was placed on the floor of the irradiator, with the mouse thoracic region ˜43.75 cm from the X-ray source. Dose measurements were conducted twice to account for set-up error and reproducibility. […] The dose rate was reported for each aperture position 1-4 as an absorbed dose rate to water (ADRW, Gy/min) and the two repeated measurements were averaged.
Mice (12-14 weeks of age) were anesthetized using inhaled anesthesia (isoflurane), and the fur was clipped on the dorsal side of the thoracic region. […] Animals were then anesthetized with injected anesthesia (150 mg/kg ketamine/18 mg/kg xylazine) and placed in Lucite jigs for exposure to 16.5 Gy thoracic irradiation in the RS2000 X-ray irradiator as previously described [19].
Animals were monitored daily for 85 days post-irradiation for both radiation dermatitis and combined injury models. Radiation dermatitis was separately scored for hair loss, erythema, scale, and ulceration. Scoring for erythema, scale and ulceration were previously described: 0=none; 1=minimal; 2=mild; 3=moderate; 4=marked [19]. Because all animals underwent fur clipping prior to irradiation and wounding, scoring for hair loss was determined as failure to regrow hair in the irradiated areas: 0=none; 1=minimal; 2=mild; 3=moderate; 4=marked. Animals were photographed for the measurement of wounds and for dermatitis scoring. […] Weight was measured as an indication of overall health.

[1] = tested on: X-ray irradiated and wounded mice; assay: Combined injury murine model (thoracic X-ray irradiation plus wound); type: in vivo, C57BL/6 mice
From the text: The C57BL/6 strain of mice has been utilized extensively for the study of radiation-induced skin injuries. We determined that 16 Gy is the minimal dosage for the induction of radiation burns in C57BL/6 mice that are not repaired within 45 days. Sham irradiated mice without wounds were used as controls for radiation dermatitis, and treated identically as irradiated mice. Wounded mice, without radiation, were used as controls for combined injury.
Animals were irradiated in the RS2000 small animal irradiator. The RS2000 provides a cone-shaped radiation field with irradiation at 12.39-40.50 cm from the X-ray source. For dose measurements, irradiation was performed with the following settings: 160 kVp, 25 mA, 90 s irradiation time and 0.3 mm Cu beam filtration. The approximate HVL provided by the manufacturer was 0.62 mm Cu. The University of Wisconsin Medical Radiation Research Center (UW MRRC) provided eight acrylic mouse phantoms with three (1×1×1 mm) Harshaw thermoluminenscence dosimeter (TLD)-100 microcubes (ThermoElectron Corp., Oakwood Village, OH) embedded in each phantom. The cylindrical phantom had dimensions of 27 mm in diameter (D)×65 mm in length (L) and was stabilized by a cylindrical insert 15 mm (D)×27 mm (L) with a 3 mm thick stand. A custom lead shield was placed on the floor of the irradiator, with the mouse thoracic region ˜43.75 cm from the X-ray source. Dose measurements were conducted twice to account for set-up error and reproducibility. TLDs were processed at UW MRRC using a national standard with an expanded uncertainty (k=2) of 5%. The dose rate was reported for each aperture position 1-4 as an absorbed dose rate to water (ADRW, Gy/min) and the two repeated measurements were averaged.
Mice (12-14 weeks of age) were anesthetized using inhaled anesthesia (isoflurane), and the fur was clipped on the dorsal side of the thoracic region. Two days after fur clipping, mice to be used for combined injury were given acetaminophen (150 mg/kg in 0.5 ml sterile saline) by gavage. Animals were then anesthetized with injected anesthesia (150 mg/kg ketamine/18 mg/kg xylazine) and placed in Lucite jigs for exposure to 16.5 Gy thoracic irradiation in the RS2000 X-ray irradiator as previously described. For combined injury, immediately following thoracic irradiation and while still under anesthesia, the area of the skin was scrubbed with betadine or chlorhexidine, followed by cleaning with an alcohol pad. A 9/16 inch diameter punch biopsy tool was used to create a 1 cm wound in the central dorsal thoracic region, roughly in the center of the field of radiation exposure. The panniculus carnosus muscle and overlying skin will be removed. The wound will be left open to air. The size of the wound approximates 15% of the total body skin surface.
TSN6 peptide (5 μg/day in 50 μl sterile saline) or hepatocyte growth factor (HGF; 3.3 μg/day in 50 μl sterile saline) or vehicle (sterile saline, 50 μl) were injected subcutaneously on days 2, 7 and 10 post-irradiation. Injections were made caudal, adjacent to the irradiated or irradiated/wounded area.
Animals were monitored daily for 85 days post-irradiation for both radiation dermatitis and combined injury models. Radiation dermatitis was separately scored for hair loss, erythema, scale, and ulceration. Scoring for erythema, scale and ulceration were previously described: 0=none; 1=minimal; 2=mild; 3=moderate; 4=marked. Because all animals underwent fur clipping prior to irradiation and wounding, scoring for hair loss was determined as failure to regrow hair in the irradiated areas: 0=none; 1=minimal; 2=mild; 3=moderate; 4=marked. Animals were photographed for the measurement of wounds and for dermatitis scoring. […] Weight was measured as an indication of overall health.

[2] = tested on: dermal papilla (DP) cells; assay: Cell viability assay (MTT); type: cell-based; settings: treated for four days, in vitro
Procedure: Cell viability assay: Keratinocytes and dermal papilla cells were plated at 4000 and 2000 cells/well respectively in a 96 well plate with six replicates and cultured overnight. The media was changed and appropriate treatment-vehicle, scrambled peptide or active peptide—was added to the well. The media were changed with fresh media containing peptides 2 days after initial treatment, and the total culture period was 4 days. The cell viability was then measured using CellTiter […] Non-Radioactive Cell Proliferation Assay (MTT) (Promega Corporation). Briefly, 15 μL of dye solution was added to each well and incubated for 4 h at 37° C. and 5% CO2. Next 100 μL of stop solution was added to the mixture, incubated for an hour and absorbance was recorded at 570 nm using a plate reader.
Materials and Methods: Cultured dermal papilla (DP) cells, specialized skin fibroblasts isolated from the base of hair follicles, were treated with TSN18 for four days. Cell viability was measured using the CellTiter 96 Non-radioactive cell proliferation assay (MTT) kit. Alkaline phosphatase activity, a marker of trichogenicity was measured with the alkaline phosphatase yellow (pNPP) liquid substrate system for ELISA. […] The bandages were changed at two weeks and removed after four weeks and the grafts were monitored through 10 weeks. […]

grafted DECs = assay: Graft survival and size of TSN18-treated DECs grafted on nude mice; type: in vivo, Cr: NIH(S)-nu/nu mice
Procedure: Materials and Methods: Cultured dermal papilla (DP) cells, specialized skin fibroblasts isolated from the base of hair follicles, were treated with TSN18 for four days. Cell viability was measured using the CellTiter 96 Non-radioactive cell proliferation assay (MTT) kit. Alkaline phosphatase activity, a marker of trichogenicity was measured with the alkaline phosphatase yellow (pNPP) liquid substrate system for ELISA. A pilot study was performed to see whether incorporation of TSN18 active peptide in DECs improves graft survival or size. For the construction of DECs, human DP cells suspended in 1 mg/mL rat tail type I collagen were plated on inserts placed in six-well plates and incubated in media containing TSN18 active or scrambled peptide for 3 days. Subsequently, human neonatal foreskin keratinocytes were layered on top and the media changed to Epi medium containing TSN18 active or scrambled peptide for 2 days. […] The bandages were changed at two weeks and removed after four weeks and the grafts were monitored through 10 weeks. […] At the end of the experiment, the histological appearance of grafts was evaluated for the presence of a human stratified squamous epithelium and the presence or absence of human cells was assessed by staining for human leukocyte antigen. Graft sizes were measured by tracing the grafts and area determined using ImageJ (NIH) software.

mice with CI = assay: Combined injury (CI) pilot study with active or scrambled peptide; type: in vivo, C57BL/6 mouse; settings: s.c. near wound on days 2, 7, 10 post-irradiation; 5 mice per group (FIG. 15)
From the text: Mice were exposed to thoracic X-ray irradiation without excision wounding to induce CRI, and with an experimental excision wound within the irradiated region to induce CI. Animals were scored by researchers blinded to the treatment groups. Photographic documentation was made for each experiment. We evaluated the rate of wound healing from days 1-30 post-irradiation, and the severity of dermatitis was scored using four variable measures (erythema, scale, hair loss, and ulceration) in the mice from 14 days post-irradiation (dpi) until necropsy. Specific cellular and protein expression changes were determined using western blotting and immunohistochemistry (IHC). To evaluate the efficacy of bioactive peptides, mice with CI were treated with active peptides or scrambled peptides (negative control) by subcutaneous injection near the wound site on days 2, 7, and 10 post-irradiation. Additionally, vehicle control CI animals received saline (vehicle for the peptides) injections in the same volumes on the same days.

[3] = tested on: wound re-epithelization and closure; settings: in BALB/c mice, previous studies; cited from earlier work
[4] = tested on: wound re-epithelization and closure; settings: in vitro, previous studies; cited from earlier work
dermal papilla cells = assay: Alkaline phosphatase activity (marker of trichogenicity) in cultured cells; type: cell-based; settings: TSN18, treated for four days, in vitro
Procedure: Dermal papilla cells regulate hair follicle development and growth, unfortunately, maintaining dermal papilla cells inductive capacity is difficult in culture, as evident by their gradual loss of alkaline phosphatase activity in culture^3. To test if TSN peptides can increase alkaline phosphatase activity keratinocytes and dermal papilla cells were plated at 4000 and 2000 cells/well respectively in a 96 well plate with six replicates and cultured overnight. The media was changed and appropriate treatment-vehicle, scrambled peptide or active peptide—was added to the well. The media were changed with fresh media containing peptides 2 days after initial treatment, and the total culture period was 4 days, following which alkaline phosphatase activity was measured (FIG. 1). […]
Alkaline Phosphatase activity: Keratinocytes and dermal papilla cells were plated at 4000 and 2000 cells/well respectively in a 96 well plate with six replicates and cultured overnight. […] Alkaline phosphatase activity was measured according to manufacturer's instructions using Alkaline Phosphatase Yellow (pNPP) Liquid Substrate System for ELISA (Sigma Aldrich).
Materials and Methods: Cultured dermal papilla (DP) cells, specialized skin fibroblasts isolated from the base of hair follicles, were treated with TSN18 for four days. […] Graft sizes were measured by tracing the grafts and area determined using ImageJ (NIH) software.

[5] = 16.5 Gy, s.c. days 2, 7, 10 post-irradiation, TSN6 5 μg/day, HGF 3.3 μg/day, vs vehicle
[6] = 16.5 Gy plus wound, s.c. days 2, 7, 10, TSN6 5 μg/day, HGF 3.3 μg/day

Row | Substance | ulceration score (X-ray irradiated mice; 16.5 Gy, s.c. days 2, 7, 10 post-irradiation, HGF 3.3 μg/day, vs vehicle) | erythema score (X-ray irradiated mice; [5]) | hair loss score (X-ray irradiated mice; [5]) | radiation dermatitis (overall measures) (X-ray irradiated mice; [5]) | scale score (X-ray irradiated mice; [5]) | adipose layer in H&E histological sections (X-ray irradiated mice; skin 83 days post-irradiation, radiation alone) | ulceration score ([1]; 16.5 Gy plus wound, HGF 3.3 μg/day s.c. days 2, 7, 10) | characteristics of radiation dermatitis (hair loss, scale, erythema, ulceration) including combined score [1, 6] | rate of wound closure / wound repair [1, 6] | adipose layer in histological sections ([1]; combined injury, 83 days post-irradiation) | cell viability of DP cells [2] | average graft size (grafted DECs; at 10 weeks, peptide 10 μM, ImageJ) [mm2] | mice that retained the graft until 10 weeks (grafted DECs; peptide 10 μM in DECs, n=5 per group) | decrease of severity of aggregate radiation dermatitis scores (mice with CI) [%] | wound re-epithelization and closure [3] | wound re-epithelization and closure [4] | alkaline phosphatase activity of DP cells (dermal papilla cells)
1 | HGF: Hepatocyte growth factor, a pluripotent factor; a known adult tissue repair factor | not markedly different | not markedly different | not markedly different | did not improve any measures | not markedly different | some improve preservation of the adipose layer | somewhat exacerbate ulceration | did not improve any measure | did not accelerate wound repair | some improvement in the adipose layer in some animals | – | – | – | – | – | – | –
2 | QPQPLPSPGVGGKN [TSN18, 14 aa combination of non-helical Collagen (VI) Alpha-3 chain regions] | – | – | – | – | – | – | – | – | – | – | did not affect | 16.4±5.4 | four out of five | ~50 | promoted wound re-epithelization and closure | promoted wound re-epithelization and closure | did not affect
